For series [1], the system named is mice treated with carboplatin. In words: Example 1: dose response of PEGylated TPO Compound No. 1 given one day after carboplatin, anemia in mice. In kind it is in vivo, BALB/c mouse. The conditions noted are these: carboplatin alone 2x60mg/kg ip; by Day 11. The procedure: (§1) The effects of PEGylated TPO Compound No. 1 on mice treated with carboplatin were observed. For all examples herein, a 10 mg/ml stock solution of PEGylated TPO Compound No. 1 was prepared in sterile saline. For mixing, the preparation was placed on a gyratory shaker for 15min. at 200 rpm. This method was used to dissolve PEGylated TPO Compound No. 1 without foaming. The stock was filtered using a GV Millex (0.22um) filter. Dosing solutions were then prepared from this stock using sterile saline. The stock and dosing solutions were prepared fresh on the day of use.
The effect of PEGylated TPO Compound No. 1 on the duration and severity of anemia following treatment of mice with carboplatin as determined by changes in hemoglobin levels, red blood cell count and hematocrit, was observed. For this study, increasing amounts of PEGylated TPO Compound No. 1 were administered to mice one day following a carboplatin dose to characterize a possible dose-dependent effect on various red blood cell parameters.
(§2) The groups of mice were treated with either carboplatin or vehicle (Phosphate Buffered Saline, PBS) by intraperitoneal administration on Days -2 and -1 as delineated below. The optimal dose of carboplatin used to induce thrombocytopenia in the BALB/c mouse strain was previously determined to be a fractionated total dose of 120mg/kg given as two consecutive daily injections (i.e., 2x60mg/kg). One day following the second dose of carboplatin, groups of mice were treated with PEGylated TPO Compound No. 1 or vehicle (sterile saline, SS, preservative-free 0.9% sodium chloride) by IV (bolus) injection as delineated in Table 1. The dose was administered on a per-weight basis (100ul/10g body weight).
On Days 5, 7, 9 and 11, five mice in each test group were weighed and then euthanised using CO2-asphyxiation and exsanguinations via cardiac puncture. The blood samples were transferred to separate EDTA (lavender-top) microcontainers for hematologic evaluation. Groups of control mice (5) were processed on Days 5 and 11. The data are presented graphically as group means +SEM.

Series [2] has as its system mice treated with carboplatin. In words: Example 2: dosing seven days before and/or 1 hour after carboplatin, hematological parameters in mice. In kind it is in vivo, BALB/c mouse. The conditions noted are these: carboplatin alone. As to the method:
as §1
The possibility that PEGylated TPO Compound No. 1 may sensitize bone marrow hematopoietic stem cells of mice to the toxic effects of carboplatin treatment was examined. For this study, a dose of PEGylated TPO Compound No. 1 was administered to the mice seven days prior to the carboplatin dose or immediately after carboplatin treatment. An additional group was treated with PEGylated TPO Compound No. 1 both prior to and after carboplatin administration. The effect of these dosing regimens on hematological parameters was also observed.
The groups of mice were treated with either carboplatin or vehicle (Phosphate Buffered Saline, PBS) by ip administration on Days 7 and 8 as delineated below. The optimal dose of carboplatin used to induce thrombocytopenia in the BALB/c mouse strain was previously determined to be a fractionated total dose of 120mg/kg given as two consecutive daily injections (i.e., 2x60mg/kg). Seven days prior to the first carboplatin dose or one (1) hour after the second dose of carboplatin, groups of mice were treated with PEGylated TPO Compound No. 1 (300ug/kg) or vehicle (sterile saline, SS, preservative-free 0.9% sodium chloride) by IV (bolus) injection as delineated in Table 2. An additional group was treated with PEGylated TPO Compound No. 1 both before (Day 0) and after (Day 8, t=1h) the carboplatin dose. All dosing was performed on a per-weight basis (100ul/10g body weight).
On Days 14, 18, 22 and 26, five mice in each test group were weighed and then euthanised using CO2-asphyxiation and exsanguination via cardiac puncture. The blood samples were transferred to separate EDTA (lavender-top) microcontainers for hematological evaluation. Groups of control mice (5) were processed on Days 14 and 26. The data are presented graphically as group means + SEM.

Series [3] deals with mice treated with carboplatin. In words: Example 3: dosing 1 hour, 1 day or 4 days after carboplatin, anemia in mice. The class given is in vivo, BALB/c mouse. The conditions noted are these: carboplatin alone; surviving mice (2 mice) by Day 12 compared to control groups. The procedure: as §1
The effect of PEGylated TPO Compound No. 1 on the duration and severity of anemia following dosing regimens in which PEGylated TPO Compound No. 1 is administered at various times following the carboplatin treatment was observed. For this study, an amount of PEGylated TPO Compound No. 1 was administered to mice, one (1) hour, one (1) day or four (4) days following a carboplatin dose.
The groups of mice were treated with either carboplatin or vehicle (Phosphate Buffered Saline, PBS) by ip administration on Days -1 and 0 as delineated below. The optimal dose of carboplatin used to induce thrombocytopenia in the BALB/c mouse strain was previously determined to be a fractionated total dose of 120mg/kg given as two consecutive daily injections (i.e., 2x60mg/kg). One hour (Day 0), one day (Day 1) or four days (Day 4) following the second dose of carboplatin, groups of mice were treated with PEGylated TPO Compound No. 1 (300ug/kg) or vehicle (sterile saline, SS, preservative-free 0.9% sodium chloride) by IV (bolus) injection as delineated in Table 3. The dose was administered on a per-weight basis (100ul/10g body weight).
On Days 6, 8, 10 & 12, five mice in each test group were weighed and then euthanised using CO2-asphyxiation and exsanguinations via cardiac puncture. The blood samples were transferred to separate EDTA (lavender-top) microcontainers for hematological evaluation. Groups of control mice (5) were processed on Days 6 & 12. The data are presented graphically as group means + SEM.

The next series relates to carboplatin-treated mice. In words: Example 4: lower doses (30, 100, 300ug/kg) as survival factor for erythrocyte lineages in carboplatin-treated mice. In kind it is in vivo, BALB/c mouse. The following applies: carboplatin alone; by Day 12. The procedure:
as §1
The ability of PEGylated TPO Compound No. 1 to function as a survival factor for megakaryocyte and erythrocyte lineages in carboplatin-treated mice as determined by changes in hematological parameters was observed. […] In this study, the effect of lower doses of PEGylated TPO Compound No. 1 (i.e., 30, 100 and 300ug/kg) on the survival of erythrocyte lineages was examined to characterize the dose-response for this effect.
as §2, with “ip” for “intraperitoneal”, “-1” for “-2”, “0” for “-1”, “Approximately one hour” for “One day”, “4.” for “1.”
On Days 6, 8 and 12, five mice in each test group were weighed and then euthanised using CO2-asphyxiation and exsanguinations via cardiac puncture. The blood samples were transferred to separate EDTA (lavender-top) microcontainers for hematologic evaluation. Groups of control mice (5) were processed on Days 6 & 12.

For series [4], the system named is mice treated with two rounds of carboplatin. In words: Example 5: two rounds of high-dose carboplatin, hematocrit and survival of mice. In kind it is in vivo. The conditions noted are these: of the mice not utilized for hematological evaluation; carboplatin alone versus combination therapy. The procedure:
as §1
Groups of mice were treated with two rounds of the chemotherapeutic agent (carboplatin) ten days apart, with each round consisting of two consecutive days of carboplatin (i.e., 70 mg/kg/day administered on Days -1 & 0 and Days 10 & 11) as delineated below. The dose of carboplatin utilized for these survival studies exceeded the maximal tolerated dose for mice (i.e., 120 mg/kg; administered as 60 mg/kg/day on 2 consecutive days). One hour following the second dose of carboplatin in each round (i.e., Day 0 and 11) mice were treated with PEGylated TPO Compound No. 1 (100ug/kg) or vehicle (sterile saline, SS, preservative-free 0.9% sodium chloride) by IV (bolus) injection as delineated below. The dose was administered on a per weight basis (100 ul/10g body weight). […]

In the case of `N.N.O=C([O-])C1(C(=O)[O-])CCC1.[Pt+2]` [carboplatin], the “decrease in hemoglobin levels” value in series [1] is on record as around 20%; with carboplatin-treated mice, “greater than 25%”. Moreover, in series [2] (between Days 7 and 26), the “lost body weight (average)” value is “approximately 4%”. Moreover, the “decreases in hemoglobin levels, RBC counts and hematocrits” value in series [2] (by Days 18 and 22 compared to control groups) is “approx. 18%”; in series [3], “approx. 47%”. Moreover, the “mice that died between days 4 and 18” value in series [4] was determined as 7.
